Laboratory results reported in patent publication US8304418B2, “Pyrazolopyrimidinone kinase inhibitor” (Agennix AG, priority 2007, dated 2012).
Converted amounts (≈) assume the structure as drawn. “And” between values parts separate entries of the source, which are not always exact repeats. Equal values may be shown once. Read-outs that look alike come from different tables or passages of the source.

Tests used:
Sk-mel-28 = test: Cell proliferation, Sk-mel-28; type: cell-based; conditions: Homo sapiens
Description: (§1) The assays used for determining the properties of the kinase inhibitors were performed in accordance with standard procedures well known to those skilled in the art. For example, assays for determining inhibitory activity on CDKs or in cellular assays are described in WO 00/218962, WO 2005/026129, and WO 2005/063765. Solubility assays at pH 7.4 were essentially performed as described by Avdeef, A. in Pharmacokinetic Optimization in Drug Research; Testa, B.; van de Waterbeemd, H.; Folkers, G.; Guy, R. Eds.; Wiley-VHC: Zurich, 2001; pp 305-326. PAMPA permeability assays at pH 7.4 were essentially performed as described in Kansy et al., J. Med. Chem. 41: 1007-10, 1998.
(§2) When compared to IC50s of cellular proliferation by compound I, (as determined by the methods described earlier), the corresponding IC50 for cellular inhibition of CDK9-dependent RNAPII phosphorylation is approximately similar.

[1] = tested on: human A2780 ovarian tumor cells
Description: Compound P (as hydrochloric acid salt) was formulated in 30% PEG300/70% water, and Compound I (as hydrochloric acid salt) was formulated in 20% PEG300/80% D5W (5% dextrose water) and administered by oral gavage twice every day for 10 days (bid×10), while the Cytoxan control which was administered i.p. in saline every two days over a period of 10 days (q2 d×5): […]

CDK6 = CDK6 (Homo sapiens, UniProt Q00534); test: Biochemical CDK6 inhibition assay
Description: as §1

CDK4 = CDK4 (Homo sapiens, UniProt P11802); test: Biochemical CDK4 inhibition assay
Description: as §1

[2] = tested on: CDK4/6-specific phosphorylation of Rb on serine 780; test: In-cell Rb phosphorylation (immunoblot); type: cell-based, human; conditions: Homo sapiens, read-out: IC50 (uM) - Rb-5 phosphorylation
Source text: This set of assays represents CDKs involved in cell cycle progression (CDK1, 4/6), and the “regulatory CDK” (CDK9) which is involved in transcriptional regulation.
(§3) The following cancer cell lines were investigated in the course of these studies: A2780 (ovarian), HCT116 (colon), RPMI8226 (myeloma), SKMel28 (melanoma), Colo205 (colorectal), MDA-MB-435 (melanoma), MDA-MB-453 (breast, carcinoma), MDA-MB-468 (breast, adenocarcinoma), A549 (lung), Raji (lymphoma, Burkitt). Cell lines were obtained from public repositories.
CDK4/6-specific phosphorylation of Rb on serine 780 (Ser780phos). Asynchronous growing cells were treated with an appropriate concentration of test compound or DMSO for 1 hour. Proteins were extracted using the AllPrep RNA/Protein kit according to the manufacturer's recommendations (Qiagen, Germany). Rb was immunoprecipitated over night using Ab05 antibody (Oncogene Inc.). Proteins were separated by SDS-PAGE, blotted to PVDF membranes and analyzed with antibodies against total (sc-102; Santa Cruz) or Ser780-phosphorylated Rb proteins (Cell Signalling). Visualization and quantification was performed as above.

panel of non-CDK kinases = test: Inhibitory activity against a panel of non-CDK kinases; type: biochemical
Description: as §1

[3] = tested on: cell lines A2780, HCT-116, HT-29, HepG2, NCI/ADR-RES, OVCAR3, H460, IMR-90, T98G, A549 among others; test: Inhibition of proliferation in a set of cancer-model cell lines; type: cell-based; conditions: read-out: IC50 values, inhibition of proliferation (range over cell lines)
Description: as §1

Colo205 = test: Cell proliferation, Colo205; type: cell-based; conditions: Homo sapiens, COLO 205
Description: as §1, §2

[4] = Solubility assay at pH 7.4; type: physicochemical; conditions: pH 7.4, aqueous buffer
Description: as §1

[5] = tested on: human A2780 ovarian tumor cells; remark: listed apart in the source
Description: Xenograft Tumor-Models: 100 athymic nu/nu female mice (6-8 weeks old) from CRL were allowed to acclimate for 4 days. […] The 3rd passage of cells with approximate 90% confluence was used for these experiments. Briefly, on Day 0, mice were inoculated with 0.1 ml (total 5×10^6 cells) of the respective cell-type as a cell suspension (50×10^6 cells/ml) by subcutaneous injection into the fat pad area near the mammary gland under light anesthesia. When the average tumor weight in all mice reached over 100 mg (day 10), 80 animals with an average tumor size of 130 mg were selected and were randomly divided into 8 groups.
A 20 G gavage needle was used for the oral treatment.
Tumor growth and body weight were monitored and recorded three times a week. Tumors were measured by determining the length and width of the tumor with a digital caliper. Tumor weight was estimated using the following formula: Tumor Weight (mg)=(w^2×1)×0.52 where w=width and l=length in mm of the tumor.
Experimental treatment may cause partial regression (PR) or complete regression (CR) of tumors. PR is defined when the tumor size is 50% or less than the starting (day 1) size but greater than 0.0 mg for three consecutive measurements during the course of the study. CR occurs when there is no measurable tumor mass for three consecutive measurements. Cures are defined when CR are maintained until the completion of the experiment.
Mice were sacrificed when their tumors reached the 1000 mm^3 endpoint volume. Treatment efficacy was determined as Log Cell Kill (LCK).
Toxic deaths are defined as deaths caused by compound treatment and not by advanced disease state. […] Non-tumor related deaths after this point are recorded, but not considered toxic deaths.
Briefly, the empirical distributions of T and Td were derived from B=1000 realisations of random selection of n individual animals with replacement from the set i=1, . . . , n of the appropriate group of mice containing n evaluable animals, estimating the mean tumor size for such selection of animals for each time-point, and linear regression analysis from a semi-log plot of such averages against time. Dead mice and mice with no measurable tumor size were treated as missing data and were ignored when calculating the average.

[6] = tested on: CDK9-specific phosphorylation of RNA polymerase II (RNAPII) on serine 2; test: In-cell RNAPII phosphorylation (immunoblot); type: cell-based, human; conditions: Homo sapiens, 3 h
Description: as §3
CDK9-specific phosphorylation of RNA polymerase II (RNAPII) on Serine 2 (Ser2). Asynchronous cells were treated with an appropriate concentration of test compound or DMSO as a control. After 3 h incubation (37° C./5% CO2) cells were lysed with CLB-1 lysis buffer (Zeptosense, Switzerland), the lysate was cleared by centrifugation (10 min, 13000 rpm, RT) and subjected to SDS-PAGE. Total protein was blotted on PVDF membranes and analyzed using antibodies against S2-phosphorylated RNAPII (H5; Covance) or total RNAPII (N-20; Santa Cruz) as an expression control. Visualization was conducted using secondary Alexa680- or IR800-coupled antibodies (Molecular Probes) against mouse or rabbit Fc tails on the Odyssey-system (Licor). Specific bands were quantified and IC50 values of inhibition of RNAPII phosphorylation were estimated.

[7] = PAMPA permeability assay at pH 7.4; type: in vitro ADME
Description: as §1

CDK1 = CDK1 (Homo sapiens, UniProt P06493); test: Biochemical CDK1 inhibition assay
Description: as §1

CDK1, sequence (P06493 whole entry): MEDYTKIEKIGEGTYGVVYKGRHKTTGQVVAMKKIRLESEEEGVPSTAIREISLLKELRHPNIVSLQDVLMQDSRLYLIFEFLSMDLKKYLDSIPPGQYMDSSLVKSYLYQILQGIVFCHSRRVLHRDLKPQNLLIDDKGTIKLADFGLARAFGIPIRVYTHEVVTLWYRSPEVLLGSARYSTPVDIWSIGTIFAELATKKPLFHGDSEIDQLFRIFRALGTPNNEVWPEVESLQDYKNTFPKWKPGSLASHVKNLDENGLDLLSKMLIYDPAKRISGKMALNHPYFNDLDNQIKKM
CDK1, sequence (P14635 whole entry partner): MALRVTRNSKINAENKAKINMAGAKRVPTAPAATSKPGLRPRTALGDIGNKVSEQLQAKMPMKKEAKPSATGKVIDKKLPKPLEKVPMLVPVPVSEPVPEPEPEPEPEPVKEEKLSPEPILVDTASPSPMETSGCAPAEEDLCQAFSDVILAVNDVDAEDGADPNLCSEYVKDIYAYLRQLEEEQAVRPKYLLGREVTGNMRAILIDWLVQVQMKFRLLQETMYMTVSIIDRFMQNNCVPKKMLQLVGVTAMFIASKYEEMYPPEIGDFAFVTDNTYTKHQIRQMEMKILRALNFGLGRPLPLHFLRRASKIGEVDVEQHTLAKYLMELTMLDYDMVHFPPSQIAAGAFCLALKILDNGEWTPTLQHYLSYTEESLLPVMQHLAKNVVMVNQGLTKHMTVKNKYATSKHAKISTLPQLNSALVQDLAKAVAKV
CDK6, sequence (Q00534 whole entry): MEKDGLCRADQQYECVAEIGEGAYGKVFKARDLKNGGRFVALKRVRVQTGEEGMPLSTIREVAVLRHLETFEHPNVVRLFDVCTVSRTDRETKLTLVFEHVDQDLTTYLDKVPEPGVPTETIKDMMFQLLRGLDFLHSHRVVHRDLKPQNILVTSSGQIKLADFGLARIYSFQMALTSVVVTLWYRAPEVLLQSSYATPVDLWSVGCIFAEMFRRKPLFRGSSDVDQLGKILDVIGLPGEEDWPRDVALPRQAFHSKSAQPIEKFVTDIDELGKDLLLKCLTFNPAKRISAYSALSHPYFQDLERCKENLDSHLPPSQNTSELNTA
CDK6, sequence (P30281 whole entry partner): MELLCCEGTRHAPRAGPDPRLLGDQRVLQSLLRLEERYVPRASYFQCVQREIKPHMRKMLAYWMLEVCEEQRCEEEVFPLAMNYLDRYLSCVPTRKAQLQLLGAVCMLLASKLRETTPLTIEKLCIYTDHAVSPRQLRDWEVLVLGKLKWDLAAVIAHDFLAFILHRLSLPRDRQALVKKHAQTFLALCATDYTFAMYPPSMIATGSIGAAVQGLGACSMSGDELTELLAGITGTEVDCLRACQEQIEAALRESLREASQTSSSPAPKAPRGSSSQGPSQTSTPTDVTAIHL
CDK4, sequence (P11802 whole entry): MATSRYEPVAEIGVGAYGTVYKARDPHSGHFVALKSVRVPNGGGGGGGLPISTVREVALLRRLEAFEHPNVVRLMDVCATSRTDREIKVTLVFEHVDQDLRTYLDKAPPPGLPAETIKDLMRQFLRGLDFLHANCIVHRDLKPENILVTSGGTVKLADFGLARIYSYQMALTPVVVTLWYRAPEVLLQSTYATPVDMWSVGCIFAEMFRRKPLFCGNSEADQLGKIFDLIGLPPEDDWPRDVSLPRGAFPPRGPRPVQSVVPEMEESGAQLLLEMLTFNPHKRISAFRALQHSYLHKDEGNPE
CDK4, sequence (P24385 whole entry partner): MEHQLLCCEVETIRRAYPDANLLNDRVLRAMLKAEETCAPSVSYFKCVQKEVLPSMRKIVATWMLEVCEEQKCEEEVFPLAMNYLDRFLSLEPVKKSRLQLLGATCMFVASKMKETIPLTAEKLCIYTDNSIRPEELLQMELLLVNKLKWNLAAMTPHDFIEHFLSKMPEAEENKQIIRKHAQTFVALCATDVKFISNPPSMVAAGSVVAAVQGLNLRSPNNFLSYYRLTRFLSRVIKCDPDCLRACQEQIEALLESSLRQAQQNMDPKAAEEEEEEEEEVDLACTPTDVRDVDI

CC(C)c1nn(-c2c(Cl)cncc2Cl)c2nc(Cc3ccc(CN4CCCC4)c(O)c3)[nH]c(=O)c12 [Compound I, 1-(3,5-dichloropyridin-4-yl)-6-(3-hydroxy-4-pyrrolidinomethyl-phenyl)methyl-3-isopropyl-pyrazolo[3,4-d]pyrimidin-4-one]
IC50 (Sk-mel-28): ~0.3 µM | Toxic Mortality ([1]; 15 [14] mg/kg po bidx10, N=10): 0 | Max % TGI (d) ([1]; 15 [14] mg/kg po bidx10, day 10): 47 (10) % | Max % BW Loss (d) ([1]; 15 [14 free base] mg/kg po bidx10, HCl salt, day 6): 0 (6) % | LCK ± CI (95%) (Td: 2.1 d) ([1]; 32 [30] mg/kg po bidx10): 1.72 ± 0.89 and 1.72 | Toxic Mortality ([1]; 32 [30] mg/kg po bidx10, N=10): 0 | Max % TGI (d) ([1]; 32 [30] mg/kg po bidx10, day 13): 81 (13) % | Max % BW Loss (d) ([1]; 32 [30] mg/kg po bidx10, day 15): 4.8 (15) % | LCK ± CI (95%) (Td: 2.1 d) ([1]; 48 [45] mg/kg po bidx10): 3.38 ± 0.81 and 3.38 | Cure ([1]; 48 [45] mg/kg po bidx10, N=10): 3 | Toxic Mortality ([1]; 48 [45] mg/kg po bidx10, N=10): 0 | Max % TGI (d) ([1]; 48 [45] mg/kg po bidx10, day 13): 97 (13) % | Max % BW Loss (d) ([1]; 48 [45] mg/kg po bidx10, day 15): 15.9 (15) % | CR ([1]; 48 [45] mg/kg po bidx10, mice with complete regression, N=10): 1 | PR ([1]; 48 [45] mg/kg po bidx10, mice with partial regression, N=10): 5 | IC50 (CDK6): 0.01 to 0.05 µM | IC50 (CDK4): ~0.05 µM | IC50 ([2]; A2780, 1 h, A2780 cells): ~0.5 µM | IC50 ([2]; HCT-116, 1 h, HCT116 cells): ~5 µM | IC50 ([2]; MDA-MB-435, 1 h, MDA-MB-435 cells): ~3 µM | IC50 ([2]; RPMI-8226, 1 h, RPMI8226 cells): ~5 µM | IC50 ([2]; SK-MEL-28, 1 h, Sk-mel-28 cells): ~3 µM | inhibitory activity against non-CDK kinases (panel of non-CDK kinases): low inhibitory activity | IC50 [3]: 0.01 to 0.8 µM | IC50 (Colo205): ~0.1 µM | solubility [4]: ~390 µM (≈ 200 µg/mL) | LCK ± CI (95%) (Td: 1.7 d) ([5]; 32 [30] mg/kg po qdx10): 0.44 ± 0.24 and 0.44 | Toxic Mortality ([5]; 32 [30] mg/kg po qdx10, N=10): 0 | Max % TGI (d) ([5]; 32 [30] mg/kg po qdx10, day 11): 52.2 (11) % | LCK ± CI (95%) (Td: 1.7 d) ([5]; 63 [59] mg/kg po qdx10): 0.93 ± 0.39 and 0.93 | Toxic Mortality ([5]; 63 [59] mg/kg po qdx10, N=10): 0 | Max % TGI (d) ([5]; 63 [59] mg/kg po qdx10, day 11): 67.3 (11) % | LCK ± CI (95%) (Td: 1.7 d) ([5]; 95 [89] mg/kg po qdx7): 2.16 ± 0.44 and 2.16 | Toxic Mortality ([5]; 95 [89] mg/kg po qdx7): 1/10 | Max % TGI (d) ([5]; 95 [89] mg/kg po qdx7, day 11): 86.2 (11) % | IC50 ([6]; COLO 205, Colo205 cells): ~0.1 µM | IC50 ([6]; HCT-116, HCT116 cells): ~0.1 µM | IC50 ([6]; RPMI-8226, RPMI8226 cells): ~0.1 µM | IC50 ([6]; A2780 cells): ~0.1 µM | IC50 ([6]; MDA-MB-468 cells): ~0.1 µM | IC50 ([6]; Sk-mel-28 cells): ~0.1 µM | permeability in a PAMPA assay [7]: about 70% | IC50 (CDK1): 0.01 to 0.05 µM
